Experimental data reported in patent US20250101063A1, “POLYPEPTIDE COMPOUND AND USE THEREOF IN TREATMENT OF ENTERITIS” (Sichuan Gooddoctor Panxi Pharmaceutical Co., Ltd., priority 2022, published 2025).
Where no end group is shown, it is not given here. [ ]: non-standard residue; d: D form. pGlu = O=C1CC[C@@H](C(=O)O)N1

Columns and labels:
[1] = test system: TNBS-induced model of acute inflammatory bowel disease (UC) in SD rat; assay: TNBS-induced model of acute inflammatory bowel disease (UC) in SD rat; format: in vivo
Text: In this experiment, a rat model of ulcerative colitis was established by administering trinitrobenzene sulfonic acid (TNBS) to laboratory animal male SD rats for a single enema intervention. Acute colitis in rats induced by trinitrobenzene sulfonic acid (TNBS) is an immune response induced by cytokines secreted by Th1 type cells. […] This model is simple to establish and has good reproducibility. It is an experimental animal model widely used in evaluating drugs for the treatment of inflammatory bowel disease. […] During the experimental treatment period (D1-D14), the body weight and general clinical observation indicators (including but not limited to food intake, water intake, activity level and defecation, etc.) of the animals in each experimental group were dynamically collected. At the same time, based on the relevant scoring standards for the disease activity index of ulcerative colitis, the reactivity such as the weight loss degree, stool morphology and trait, and bloody stool of the animals in each experimental group after TNBS induction were scored, and the disease activity index (DAI) of ulcerative colitis was calculated, once a day for 14 consecutive days. At the end point of the experiment, colon tissues of animals in each experimental group were collected, and the length and weight of the colon were measured and then the non-autopsy images were collected. Then the colon was cut open along the intestinal wall longitudinally and autopsy images were collected. Based on the “Criteria for Scoring Gross Morphological Manifestations of the Colon”, the gross damage with respect to colon adhesions, colon ulcers and inflammation of animals in each experimental group was observed and scored. Ulcer images were collected under a stereomicroscope and the area of colon ulcer foci was calculated, followed by routine fixation.

[2] = test system: zebrafish model of intestinal mucosal injury; assay: Efficacy in relieving colitis: intestinal lumen area in TNBS-treated zebrafish; format: in vivo; design: key to Activity in relieving intestinal lumen dilatation: * p < 0.05; ** p < 0.01; *** p < 0.001; “−“ indicates absence of activity; “+” indicates some relief of intestinal lumen dilatation; “#” indicates that all the zebrafishes died in the experiment; “&” indicates that 13 zebrafishes died in the experiment; details: for Intestinal lumen area (pixels, mean ± SE): 2 days after TNBS, n = 10; for Activity in relieving intestinal lumen dilatation: 1000 μg/mL, significance vs model control group of the same batch
Method: Experimental animals: Wild-type AB strain zebrafishes, bred by natural pair mating. Zebrafishes aged 3 days post fertilization (3 dpf). Zebrafishes were kept in fish farming water at 28° C. (water quality: 200 mg of instant sea salt in each 1L of reverse osmosis water, with the conductivity of 450-550 μS/cm; pH of 6.5-8.5; and hardness of 50-100 mg/L CaCO3), the experimental animal use license number is: SYXK (Zhe) 2012-0171, and the breeding management met the requirements of the international AAALAC certification (certification number: 001458).
(1) Grouping: Polypeptide group: prepared into a stock solution of 20.0 mg/mL with ultrapure water and stored at −20° C.
Positive control group: prednisone, as white powder, with batch number C10016501, Shanghai Macklin Biochemical Technology Co., Ltd., stored at 4° C.; prepared into a 15.0 mg/mL stock solution with DMSO, and stored in aliquots at −20° C.
Normal control group and model control group.
(2) Experimental method: 3 dpf wild-type AB strain zebrafishes were randomly selected and placed in a 6-well plate, with 30 zebrafishes in each well (experimental group). Except for the normal control group, all other experimental groups were given TNBS in water to establish the zebrafish model of intestinal mucosal injury. After 2 days of treatment at 28° C., TNBS was removed, and polypeptide compound in water (at concentrations shown in Table 4) was given respectively, and for the positive control, prednisone was 15.0 μg/mL. A normal control group (healthy group) and a model control group (intestinal mucosal injury group) were set up at the same time. The capacity of each well (experimental group) was 3 mL. After 2 days of treatment at 28° C., 10 zebrafishes were randomly selected from each experimental group and photographed under a dissecting microscope. NIS-Elements D 3.20 advanced image processing software was used to analyze and collect data, and the intestinal lumen area of the zebrafish was analyzed. The statistical analysis results of this indicator were used to evaluate the efficacy of the samples in relieving colitis. The statistics results were expressed as mean±SE. SPSS26.0 software was used for statistical analysis, and p<0.05 indicates statistically significant difference.
The concentration gradient of the test substances set in this experimental system was 250 μg/mL, 500 μg/mL, and 1000 μg/mL. […] When the concentration of the test substance was further increased for intervention, the death phenomenon of zebrafishes was found in the group; therefore, in the subsequent rounds of activity evaluation, each test polypeptide compound was uniformly administered at 1000 μg/mL for intervention.

[3] = D 0-D 14, compound 12: 0.8 mg/kg, mesalazine: 30.0 mg/kg, enema once a day 14 days, mean ± SD
[4] = D 14, compound 12: 0.8 mg/kg, mesalazine: 30.0 mg/kg, enema once a day 14 days, mean ± SD
[5] = experimental endpoint, compound 12: 0.8 mg/kg, mesalazine: 30.0 mg/kg, enema once a day 14 days, mean ± SD
[6] = set treatment regimen, enema once a day 14 days, vs model control group

| Compound | Activity in relieving intestinal lumen dilatation [2] | further results |
| --- | --- | --- |
| Nc1ccc(O)c(C(=O)O)c1 [Mesalazine, mesalazine, reference compound] |  | Body weight, Grouping day (D 0, g) ([1]; D 0, before treatment, compound 12: 0.8 mg/kg, mesalazine: 30.0 mg/kg, enema once a day, mean ± SD): 276.64 ± 7.47 g; DAI score AUC(0-14 d) (D 0-D 14) [1, 3]: 58.75 ± 2.93; Weight change range (D 0-D 14, %) [1, 3]: −4.29 ± 7.79%; DAI score, Experimental day 1 (D 1, point) ([1]; D 1, compound 12: 0.8 mg/kg, mesalazine: 30.0 mg/kg, enema once a day, mean ± SD): 4.2 ± 0.4 point; DAI score, Experimental day 3 (D 3, point) ([1]; D 3, compound 12: 0.8 mg/kg, mesalazine: 30.0 mg/kg, enema once a day, mean ± SD): 6.2 ± 0.6 point; Body weight, Experimental day 5 (D 5, g) ([1]; D 5, compound 12: 0.8 mg/kg, mesalazine: 30.0 mg/kg, enema once a day, mean ± SD): 234.86 ± 8.07 g; Body weight, Experimental endpoint (D 14, g) [1, 4]: 264.43 ± 17.65 g; DAI score, Experimental endpoint (D 14, point) [1, 4]: 2.1 ± 1.6 point; Colon length (cm) [1, 5]: 14.76 ± 2.06 cm; Colon ulcer and inflammation score (point) [1, 5]: 4.30 ± 0.95 point; Colon weight (g) [1, 5]: 3.42 ± 1.15^ g; Colonic adhesion score (point) [1, 5]: 2.60 ± 0.52 point; Effect on disease progression of ulcerative colitis / DAI scores (in words) [1, 6]: no significant effect on the disease symptoms of ulcerative colitis; Effect on weight gain inhibition / weight loss response of model animals (in words) [1, 6]: did not show a significant weight improvement effect |
| PRKVAAQ [Compound 5] | * (* p < 0.05) | Intestinal lumen area (pixels, mean ± SE) ([2]; 250 μg/mL in water): 42960 ± 2661 pixels; Intestinal lumen area (pixels, mean ± SE) ([2]; 500 μg/mL in water): 45713 ± 4481 pixels; Intestinal lumen area (pixels, mean ± SE) ([2]; 1000 μg/mL in water): 33977 ± 3524 pixels; Intestinal lumen area compared with the model control group (in words) ([2]; 250, 500, 1000 μg/mL, Table 4): significant statistical differences compared with the model control group |
| PVPQAK [Compound 44] | − |  |
| PVPQAKP [Compound 60] | − |  |
| PVPQAKPR [Compound 59] | + |  |
| Pro-Arg-Lys-Val (PRKV; printed: Pro-Arg-Lys-Val) [Compound 18] | − |  |
| Pro-Gln-Ala-Lys (PQAK; printed: Pro-Gln-Ala-Lys) [Compound 14] | + |  |
| Pro-Val-Pro-Ala (PVPA; printed: Pro-Val-Pro-Ala) [Compound 42] | + |  |
| Pro-Val-Pro-Gln-Ala (PVPQA; printed: Pro-Val-Pro-Gln-Ala) [Compound 39] | + |  |
| Pro-Val-Pro-Glu-Ala (PVPEA; printed: Pro-Val-Pro-Glu-Ala) [Compound 40] | + |  |
| Pro-Val-Pro-Ile-Ala (PVPIA; printed: Pro-Val-Pro-Ile-Ala) [Compound 41] | + |  |
| RKDVYEPVPQAK [Compound 93] | * (* p < 0.05) |  |
| RKDVYKEPVPQAK [Compound 92] | ** (** p < 0.01) |  |
| RKDVYKEPVPQAKPRKVAAQ [Compound 91] | + |  |
| RKDVYPVPQ [Compound 94] | *** (*** p < 0.001) |  |
| SSEDIKEEPVPQAK [Compound 98] | ** (** p < 0.01) |  |
| SSEDIKEKEPVPQAKPRKVAAQ [Compound 97] | *** (*** p < 0.001) |  |
| SSEDIKEPVPQ [Compound 99] | * (* p < 0.05) |  |
| VPPKEPVPQAKPRKVAAQ [Compound 100] | *** (*** p < 0.001) |  |
| VPYKEPVPQAKPRKVAAQ [Compound 88] | * (* p < 0.05) |  |
| Val-Ala-Ala-Gln (VAAQ; printed: Val-Ala-Ala-Gln) [Compound 8] | + |  |
| Val-Pro-Gln-Ala (VPQA; printed: Val-Pro-Gln-Ala) [Compound 13] | − |  |
| pyro-Glu-Leu-Lys-Glu-Pro-Val-Pro-Gln-Ala-Lys-Pro-Arg-Lys-Val-Ala-Ala-Gln ([pGlu]LKEPVPQAKPRKVAAQ; also: acetate salt) [Compound 89] | ** (** p < 0.01) |  |
